Where a name gives a salt, the structure may show the parent alone. Read-outs that look alike come from different tables or passages of the source.
Assays:
BT-474 = experiment: Cell viability assay (CellTiter Glo), BT-474; type: cell-based; conditions: Homo sapiens; BT-474 cells, 72 hours, CellTiter Glo; read-out: IC50, cell viability, BT-474
[1] = biological target: T1, phosphorylated EGFR (pEGFR) (Homo sapiens, UniProt P00533); experiment: Detection of phosphorylated EGFR (pEGFR) in EGF-stimulated A431 cells; type: cell-based; conditions: A431 cells (10% FBS), 4 hours incubation, EGF 30 ng/mL 10 minutes, AlphaLISA
T1 construct: performed to measure phosphorylated EGFR levels using A431 cells (10% FBS); endogenous in cells; host or cells: A431
T1 sequence (P00533 25-1210): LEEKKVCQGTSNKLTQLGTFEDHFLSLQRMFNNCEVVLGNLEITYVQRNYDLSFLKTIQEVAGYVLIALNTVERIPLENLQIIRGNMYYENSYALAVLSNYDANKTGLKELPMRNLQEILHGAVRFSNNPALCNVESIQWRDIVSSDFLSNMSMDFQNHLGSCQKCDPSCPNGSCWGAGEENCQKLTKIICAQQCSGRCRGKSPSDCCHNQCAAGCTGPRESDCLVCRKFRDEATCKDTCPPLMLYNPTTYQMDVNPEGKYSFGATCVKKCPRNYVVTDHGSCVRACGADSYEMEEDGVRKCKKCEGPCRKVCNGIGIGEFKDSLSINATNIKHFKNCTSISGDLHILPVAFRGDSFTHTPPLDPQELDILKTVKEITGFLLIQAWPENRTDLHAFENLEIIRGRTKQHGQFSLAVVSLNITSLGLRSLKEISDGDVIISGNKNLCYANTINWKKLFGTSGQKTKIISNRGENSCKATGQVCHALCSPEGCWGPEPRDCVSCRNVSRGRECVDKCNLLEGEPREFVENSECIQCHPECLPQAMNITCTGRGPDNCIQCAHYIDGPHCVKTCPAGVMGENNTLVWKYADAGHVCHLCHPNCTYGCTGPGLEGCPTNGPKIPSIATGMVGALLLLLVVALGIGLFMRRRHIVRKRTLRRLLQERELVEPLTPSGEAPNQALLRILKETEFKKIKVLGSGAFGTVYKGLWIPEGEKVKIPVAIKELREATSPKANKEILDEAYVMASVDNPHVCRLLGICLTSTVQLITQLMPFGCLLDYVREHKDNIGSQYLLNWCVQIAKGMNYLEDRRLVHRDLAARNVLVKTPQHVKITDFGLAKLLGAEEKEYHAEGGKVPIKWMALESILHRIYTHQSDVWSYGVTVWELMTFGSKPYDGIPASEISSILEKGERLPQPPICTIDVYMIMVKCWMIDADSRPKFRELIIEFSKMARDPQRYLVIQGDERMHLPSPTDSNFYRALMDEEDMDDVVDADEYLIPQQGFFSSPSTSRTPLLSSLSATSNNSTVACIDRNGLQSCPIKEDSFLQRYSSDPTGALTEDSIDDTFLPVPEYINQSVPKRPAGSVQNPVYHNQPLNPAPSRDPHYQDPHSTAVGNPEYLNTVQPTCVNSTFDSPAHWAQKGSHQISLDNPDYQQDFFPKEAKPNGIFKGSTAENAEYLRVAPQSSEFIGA
Procedure, shortened: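 A431 cells in 10% FBS were preincubated with compound for 4 h at 37 °C, then stimulated with EGF (30 ng/mL final) for 10 min. pEGFR in lysates was read by AlphaLISA. % inhibition was calculated against DMSO and staurosporine-treated controls, and IC50 came from a four-parameter curve fit.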

[2] = biological target: T2, phosphorylated ERBB2 (pERBB2) (Homo sapiens, UniProt P04626); experiment: Detection of phosphorylated ERBB2 (pERBB2) by ELISA in BT-474 cells; type: cell-based; conditions: four hours incubation
T2 construct: endogenous in cells; host or cells: BT-474
T2 sequence (P04626 23-1255): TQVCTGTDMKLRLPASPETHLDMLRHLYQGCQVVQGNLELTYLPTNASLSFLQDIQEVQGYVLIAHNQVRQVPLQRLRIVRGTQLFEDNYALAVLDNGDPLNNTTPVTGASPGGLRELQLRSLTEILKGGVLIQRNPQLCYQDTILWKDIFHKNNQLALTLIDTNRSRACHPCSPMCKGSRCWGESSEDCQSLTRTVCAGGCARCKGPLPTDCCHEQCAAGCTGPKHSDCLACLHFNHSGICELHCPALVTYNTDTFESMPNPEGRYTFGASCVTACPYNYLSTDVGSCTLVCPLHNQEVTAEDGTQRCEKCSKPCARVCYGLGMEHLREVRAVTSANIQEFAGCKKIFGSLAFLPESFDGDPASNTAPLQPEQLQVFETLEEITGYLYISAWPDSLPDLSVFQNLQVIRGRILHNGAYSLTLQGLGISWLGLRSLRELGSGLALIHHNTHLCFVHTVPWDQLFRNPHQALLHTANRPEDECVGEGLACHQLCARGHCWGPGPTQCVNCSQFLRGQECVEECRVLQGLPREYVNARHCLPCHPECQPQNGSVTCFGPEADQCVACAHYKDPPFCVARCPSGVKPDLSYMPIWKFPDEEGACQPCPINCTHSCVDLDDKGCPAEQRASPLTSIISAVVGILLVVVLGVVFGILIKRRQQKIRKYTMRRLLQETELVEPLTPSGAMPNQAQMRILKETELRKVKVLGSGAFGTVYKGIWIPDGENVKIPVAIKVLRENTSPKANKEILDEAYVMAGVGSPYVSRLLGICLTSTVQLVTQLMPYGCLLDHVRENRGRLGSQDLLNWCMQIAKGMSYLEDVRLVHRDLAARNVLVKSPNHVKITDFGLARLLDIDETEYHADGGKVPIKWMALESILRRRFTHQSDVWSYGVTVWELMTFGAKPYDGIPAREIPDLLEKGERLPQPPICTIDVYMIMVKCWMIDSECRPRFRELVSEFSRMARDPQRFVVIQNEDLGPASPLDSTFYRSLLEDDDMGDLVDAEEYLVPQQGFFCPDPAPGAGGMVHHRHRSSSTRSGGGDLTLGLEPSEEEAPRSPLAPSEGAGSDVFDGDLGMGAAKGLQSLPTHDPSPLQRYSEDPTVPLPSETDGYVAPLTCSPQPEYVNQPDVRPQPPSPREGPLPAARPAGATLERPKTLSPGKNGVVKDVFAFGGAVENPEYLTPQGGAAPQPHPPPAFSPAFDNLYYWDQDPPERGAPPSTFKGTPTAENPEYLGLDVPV
Procedure, shortened: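 BT-474 cells (2.0×10^4/well) treated 4 h at 37 °C, 5% CO2 with compounds in four-fold dilutions from 10 µM to 0.01 nM. Lysate pERBB2 measured by ELISA with TMB read at 450 nm; % relative activity scaled between no-cell wells and 0.1% DMSO-treated cells.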

[3] = biological target: Ba/F3 ERBB2 A775_G776insYVMA (Homo sapiens, UniProt P04626, DUP772-775, cells depend on it); experiment: Cell viability assay, Ba/F3 ERBB2 A775_G776insYVMA; type: cell-based, mouse; conditions: 72 hours, CellTiter Glo
Chain of Ba/F3 ERBB2 A775_G776insYVMA (P04626 with tags, fused parts or gaps DUP772-775): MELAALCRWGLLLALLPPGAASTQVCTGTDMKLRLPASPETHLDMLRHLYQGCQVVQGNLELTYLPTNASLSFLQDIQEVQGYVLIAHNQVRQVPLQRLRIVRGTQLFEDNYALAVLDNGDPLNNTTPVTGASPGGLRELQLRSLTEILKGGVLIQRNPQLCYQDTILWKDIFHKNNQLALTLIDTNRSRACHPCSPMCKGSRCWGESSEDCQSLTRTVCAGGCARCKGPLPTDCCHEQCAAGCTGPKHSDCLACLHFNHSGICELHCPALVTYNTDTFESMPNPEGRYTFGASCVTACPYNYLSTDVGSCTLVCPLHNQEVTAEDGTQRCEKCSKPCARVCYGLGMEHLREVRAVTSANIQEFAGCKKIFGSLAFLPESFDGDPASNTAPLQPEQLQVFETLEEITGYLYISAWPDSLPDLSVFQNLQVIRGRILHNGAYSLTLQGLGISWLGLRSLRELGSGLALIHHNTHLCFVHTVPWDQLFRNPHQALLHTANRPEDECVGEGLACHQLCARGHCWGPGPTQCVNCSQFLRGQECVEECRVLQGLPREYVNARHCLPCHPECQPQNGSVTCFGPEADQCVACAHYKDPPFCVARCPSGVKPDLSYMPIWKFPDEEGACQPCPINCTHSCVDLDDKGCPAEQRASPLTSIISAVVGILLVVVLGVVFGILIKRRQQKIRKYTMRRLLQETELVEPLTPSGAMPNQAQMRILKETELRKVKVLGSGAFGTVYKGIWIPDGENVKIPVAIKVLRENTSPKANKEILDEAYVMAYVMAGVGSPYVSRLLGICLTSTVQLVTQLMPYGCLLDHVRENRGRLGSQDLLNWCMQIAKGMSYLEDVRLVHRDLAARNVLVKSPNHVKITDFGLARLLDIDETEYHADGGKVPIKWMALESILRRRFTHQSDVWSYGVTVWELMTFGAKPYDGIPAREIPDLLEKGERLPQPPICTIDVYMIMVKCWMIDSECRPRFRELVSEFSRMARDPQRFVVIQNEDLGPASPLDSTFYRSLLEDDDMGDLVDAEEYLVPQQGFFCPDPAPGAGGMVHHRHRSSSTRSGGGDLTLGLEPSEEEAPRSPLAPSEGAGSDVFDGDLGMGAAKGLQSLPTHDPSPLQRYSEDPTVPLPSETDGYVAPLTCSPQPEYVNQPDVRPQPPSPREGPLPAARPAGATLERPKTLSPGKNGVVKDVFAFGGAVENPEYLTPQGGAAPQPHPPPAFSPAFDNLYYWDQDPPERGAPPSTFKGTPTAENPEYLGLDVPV
Procedure, shortened: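 IL-3-independent Ba/F3 lines stably expressing the human ERBB2 insertion mutants were seeded at 3000 cells/well and exposed to compounds for 72 h at 37 °C, 5% CO2. Viability was read as ATP by CellTiter-Glo luminescence. Curves were fitted by sigmoidal nonlinear regression.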

[4] = Ba/F3 ERBB2 A775_G776insYVMA cells, Tables B2-B4, read-out: IC50, cell viability, Ba/F3 ERBB2 A775_G776insYVMA
[5] = Ba/F3 ERBB2 YVMA cells, cell viability, Table B5, read-out: Ba/F3 ERBB2 YVMA, IC50

IC50 (BT-474) [nM] | IC50 [1] [nM] | IC50 [2] [nM] | SMILES | GI50 [3, 4] [nM] | GI50 [3, 5] [nM]
4.32 | 3800 | 26.9 | C=C1CCN(c2ccc3ncnc(Nc4ccc(Oc5ccn6ncnc6c5)c(C)c4F)c3c2)C1=O [Compound 14, 1-[4-[(2-fluoro-3-methyl-4-[[1,2,4]triazolo[1,5-a]pyridin-7-yloxy]phenyl)amino]quinazolin-6-yl]-3-methylidenepyrrolidin-2-one] | – | –
3.73 | > 9640 | 7.52 | Cc1cc(Nc2ncnc3ccc(N4CC/C(=C\CN(C)C)C4=O)cc23)ccc1Oc1ccn2ncnc2c1 [Compound 18, (E)-1-(4-(4-([1,2,4]triazolo[1,5-a]pyridin-7-yloxy)-3-methylphenylamino)quinazolin-6-yl)-3-(2-(dimethylamino)ethylidene)pyrrolidin-2-one hydrochloride] | 77.1 | –
4.67 | 235 | 9.15 | C=C1CCN(c2ccc3ncnc(Nc4ccc(Cc5ccn6ncnc6c5)c(C)c4)c3c2)C1=O [Compound 16, 1-[4-[(3-methyl-4-[[1,2,4]triazolo[1,5-a]pyridin-7-ylmethyl]phenyl)amino]quinazolin-6-yl]-3-methylidenepyrrolidin-2-one] | 169 | –
19.5 | > 10000 | 75.9 | C=C1C(=O)N(c2ccc3ncnc(Nc4ccc(Oc5ccn6ncnc6c5)c(C)c4)c3c2)CC12CC2 [Compound 2, 5-[4-[(3-methyl-4-[[1,2,4]triazolo[1,5-a]pyridin-7-yloxy]phenyl)amino]quinazolin-6-yl]-7-methylidene-5-azaspiro[2.4]heptan-6-one] | – | –
– | > 10000 | 138 | Cc1cc(Nc2ncnc3cnc(N4CC(C)/C(=C\CN(C)C)C4=O)cc23)ccc1Oc1ccc2c(c1)nnn2C (single isomer, unassigned) [Example S86, Enantiomer #2, (3E)-3-[2-(dimethylamino)ethylidene]-4-methyl-1-[4-({3-methyl-4-[(1-methyl-1,2,3-benzotriazol-5-yl)oxy]phenyl}amino)pyrido[3,4-d]pyrimidin-6-yl]pyrrolidin-2-one] | – | 240
– | 1140 | 10.9 | CN(C)C/C=C1\CCN(c2cc3c(Nc4cc(Cl)c(Oc5ccn6ncnc6c5)cc4F)ncnc3cn2)C1=O [Compound 133, (E)-1-(4-((4-([1,2,4]triazolo[1,5-a]pyridin-7-yloxy)-5-chloro-2-fluorophenyl)amino)pyrido[3,4-d]pyrimidin-6-yl)-3-(2-(dimethylamino)ethylidene)pyrrolidin-2-one] | – | 16.9
– | 1690 | 28.2 | [2H]C([2H])([2H])N(C/C=C1\CCN(c2ccc3ncnc(Nc4ccc(Oc5ccc6c(c5)ncn6C([2H])([2H])[2H])c(C)c4)c3n2)C1=O)C([2H])([2H])[2H] [Compound 106, (E)-3-(2-(bis(methyl-d3)amino)ethylidene)-1-(4-((3-methyl-4-((1-(methyl-d3)-1H-benzo[d]imidazol-5-yl)oxy)phenyl)amino)pyrido[3,2-d]pyrimidin-6-yl)pyrrolidin-2-one] | – | 2.99
– | 3410 | 13.2 | Cc1cc(Nc2ncnc3ccc(N4CC/C(=C\CN(C)C)C4=O)nc23)ccc1Oc1ccn2nnnc2c1 [Compound 108, (3E)-3-[2-(dimethylamino)ethylidene]-1-{4-[(3-methyl-4-{[1,2,3,4]tetrazolo[1,5-a]pyridin-7-yloxy}phenyl)amino]pyrido[3,2-d]pyrimidin-6-yl}pyrrolidin-2-one] | – | 11.1
– | 710 | 60.7 | C=C1C(=O)N(c2ccc3ncnc(Nc4ccc(Oc5ccc6c(c5)ncn6C)c(C)c4)c3n2)C[C@H]1C [Compound 59, (4S)-4-methyl-1-[4-({3-methyl-4-[(1-methyl-1,3-benzodiazol-5-yl)oxy]phenyl}amino)pyrido[3,2-d]pyrimidin-6-yl]-3-methylidenepyrrolidin-2-one] | – | 13.4
